Measured values: ChEMBL document CHEMBL3272303
Calls of active or inactive are those of the source. The rule behind the calls is not given here.

Legend:
[1] = target: Beta-2 adrenergic receptor (Cavia porcellus) (UniProt Q8K4Z4); conditions: Trachea
[2] = target: Beta-1 adrenergic receptor (Cavia porcellus) (UniProt B0FL73); assay: Antagonist activity at beta 1 adrenergic receptor in guinea pig right atria assessed as inhibition of trimetoquinol-induced chronotropic response at 10^-4 M preincubated for 30 mins followed by trimetoquinol addition measured within 45 mins relative to control
[3] = target: Beta-1 adrenergic receptor (Cavia porcellus) (UniProt B0FL73); assay: Antagonist activity at beta 1 adrenergic receptor in guinea pig right atria assessed as inhibition of 10^-3 M isoproterenol-induced chronotropic response at 10^-4 M
[4] = target: Beta-2 adrenergic receptor (Cavia porcellus) (UniProt Q8K4Z4); assay: Antagonist activity at beta 2 adrenergic receptor in guinea pig trachea assessed as inhibition of trimetoquinol-induced tracheal relaxation at 10^-4 M preincubated for 30 mins followed by trimetoquinol addition measured within 1 hr
[5] = target: Beta-2 adrenergic receptor (Cavia porcellus) (UniProt Q8K4Z4); assay: Agonist activity at beta 2 adrenergic receptor in guinea pig trachea assessed as tracheal relaxation at 10^-9 to 10^-4 M
[6] = target: Beta-1 adrenergic receptor (Cavia porcellus) (UniProt B0FL73); assay: Competitive antagonist activity at beta 1 adrenergic receptor in guinea pig right atria assessed as inhibition of trimetoquinol-induced chronotropic response at 10^-6 to 10^-5 M preincubated for 30 mins followed by trimetoquinol addition measured within 1 hr
[7] = target: Beta-2 adrenergic receptor (Rattus norvegicus) (UniProt P10608); assay: Agonist activity at beta 2 adrenergic receptor in Sprague-Dawley rat adipocytes assessed as lipolysis at 10^-9 to 10^-4 M after 1 hr; format: cell-based
[8] = target: Beta-1 adrenergic receptor (Cavia porcellus) (UniProt B0FL73); assay: Antagonist activity at beta 1 adrenergic receptor in guinea pig right atria assessed as inhibition of 10^-3 M trimetoquinol-induced chronotropic response at 10^-4 M preincubated for 30 mins followed by trimetoquinol addition measured within 1 hr
[9] = target: Beta-1 adrenergic receptor (Cavia porcellus) (UniProt B0FL73); assay: Partial agonist activity at beta 1 adrenergic receptor in guinea pig right atria assessed as chronotropic response measured over 3 mins

Chain of Beta-1 adrenergic receptor (Cavia porcellus) (B0FL73 1-467): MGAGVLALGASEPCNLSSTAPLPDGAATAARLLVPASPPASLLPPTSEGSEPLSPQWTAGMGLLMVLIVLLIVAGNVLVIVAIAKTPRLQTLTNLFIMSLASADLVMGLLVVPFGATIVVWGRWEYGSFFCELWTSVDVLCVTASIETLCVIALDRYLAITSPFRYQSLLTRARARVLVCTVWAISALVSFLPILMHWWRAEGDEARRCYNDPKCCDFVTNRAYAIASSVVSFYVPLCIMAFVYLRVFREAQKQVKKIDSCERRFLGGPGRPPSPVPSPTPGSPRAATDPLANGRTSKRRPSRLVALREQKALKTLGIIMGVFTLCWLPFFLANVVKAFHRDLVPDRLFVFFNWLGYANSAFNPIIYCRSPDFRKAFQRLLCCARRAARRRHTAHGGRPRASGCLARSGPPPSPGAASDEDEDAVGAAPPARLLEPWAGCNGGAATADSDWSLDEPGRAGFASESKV
Chain of Beta-2 adrenergic receptor (Cavia porcellus) (Q8K4Z4 whole entry, looked up): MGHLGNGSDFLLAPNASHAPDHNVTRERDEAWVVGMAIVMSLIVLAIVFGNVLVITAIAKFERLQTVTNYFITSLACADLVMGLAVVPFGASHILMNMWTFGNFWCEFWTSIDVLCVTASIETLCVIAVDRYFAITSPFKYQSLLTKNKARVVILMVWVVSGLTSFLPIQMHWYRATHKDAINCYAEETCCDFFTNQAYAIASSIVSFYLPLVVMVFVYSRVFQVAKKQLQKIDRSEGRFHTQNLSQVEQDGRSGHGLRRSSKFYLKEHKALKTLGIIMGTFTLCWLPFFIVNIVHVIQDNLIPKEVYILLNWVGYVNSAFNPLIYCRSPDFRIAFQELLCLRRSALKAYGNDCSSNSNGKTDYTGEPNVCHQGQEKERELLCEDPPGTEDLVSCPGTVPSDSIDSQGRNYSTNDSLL
Chain of Beta-2 adrenergic receptor (Rattus norvegicus) (P10608 whole entry, looked up): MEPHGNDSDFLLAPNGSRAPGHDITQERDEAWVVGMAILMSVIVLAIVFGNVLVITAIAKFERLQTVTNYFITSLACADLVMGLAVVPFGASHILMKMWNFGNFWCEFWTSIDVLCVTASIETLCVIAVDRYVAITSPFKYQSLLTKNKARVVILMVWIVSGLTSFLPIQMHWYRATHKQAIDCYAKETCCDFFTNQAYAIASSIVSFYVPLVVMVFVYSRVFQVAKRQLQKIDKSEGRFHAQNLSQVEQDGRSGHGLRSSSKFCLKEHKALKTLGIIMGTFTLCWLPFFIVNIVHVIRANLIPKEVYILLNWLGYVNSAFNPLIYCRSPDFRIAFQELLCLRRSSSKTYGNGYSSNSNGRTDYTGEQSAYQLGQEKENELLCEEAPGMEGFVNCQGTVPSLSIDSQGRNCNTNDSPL

| pD2 [1] | inhibition [2] [%] | inhibition [3] | inhibition [4] | Activity [5] | inhibition [6] | Activity [7] | inhibition [8] | Activity [9] | SMILES |
| --- | --- | --- | --- | --- | --- | --- | --- | --- | --- |
| 7 | – | – | – | – | – | – | – | – | COc1cc(C[C@@H]2NCCc3cc(O)c(O)cc32)cc(OC)c1OC |
| – | < 10 | Active | inactive | inactive | Active | inactive | Active | – | COc1cc(CC2(Cc3ccccc3)NCCc3cc(O)c(O)cc32)cc(OC)c1OC (configuration not stated) |
| – | – | – | inactive | inactive | – | inactive | – | Active | COc1cc(CC2(C)NCCc3cc(O)c(O)cc32)cc(OC)c1OC (configuration not stated) |
